Test system: Male KK-Ay/Ta mice, a type 2 diabetes model
Assay: Antidiabetic effect in mice (2)
Assay type: in vivo
Details: 0.03% food admixture with CE-2 diet for 2 weeks; n=7
Procedure: Antidiabetic Effect in Mice (2)
Male KK-Ay/Ta mice (Clea Japan Inc.), a type 2 diabetes model, were used in this study. At the age of 7-week old, blood samples were collected from tail vein at 8:00 am, and animals were divided into separate groups (n=7) based on glycated hemoglobin (GHb), plasma glucose, insulin, triglyceride levels and body weight. The Compound of Example 35 (0.03% (weight % of the compound in the food admixture)) was administered by food admixture with CE-2 diet (Clea Japan Inc.) for 2 weeks. After 2 weeks of treatment, GHb was determined by auto-analyzer HLC-723G8 (TOSOH, Japan).

SMILES: CCCc1nc2c(cc1C(=O)O)C(=O)N(C1CCN(Cc3cc(C4CC4)c(-c4ccc(F)cc4F)cc3OCC)CC1)CC2 [Example 35, 6-(1-((2-Cyclopropyl-5-ethoxy-2′,4′-difluorobiphenyl-4-yl)methyl)piperidin-4-yl)-5-oxo-2-propyl-5,6,7,8-tetrahydro-1,6-naphthyridine-3-carboxylic acid]
- Average of delta GHb (%): 0.60%

Source: US9751878B2, “Tetrahydronaphthyridine somatostatin receptor 5 antagonists” (Takeda Pharmaceutical Company Limited, priority 2013, dated 2017)
